Laboratory results reported in article PMC5920098, “Identification of the allosteric P2X7 receptor antagonist [^11C]SMW139 as a PET tracer of microglial activation” (Scientific Reports, 2018).
Several values for one entry are separate records, joined by “and”; a condition that tells them apart may be missing. Identical values can stand only once. Entries after “also recorded” stand apart in the source; their conditions may differ.

Assays:
[1] = Plasma metabolite analysis in female rAAV-hP2X7R rats; format: in vivo; conditions: female rat
Method: In vivo stability of analogues [^11C]1–3 and [^11C]SMW139 was assessed in healthy male Wistar rats at 15 and 45 minutes after injection of 30–40 MBq of formulated tracer. […] Results obtained in plasma correspond with previously reported stability results in rat liver microsomes. A higher level of intact tracer was found in brain (Table 3) for [^11C]1 and [^11C]SMW139 compared with [^11C]2 and [^11C]3. Despite optimisation of the extraction method, the percentage of total radioactivity that could be extracted from brain homogenates was not optimal for all four compounds (59 ± 6% for [^11C]1; 58 ± 7% for [^11C]2; 61 ± 4% for [^11C]3; 62 ± 3% for [^11C]SMW139). Therefore, based on its highest stability in plasma in vivo, [^11C]SMW139 was selected for further in vivo studies. As imaging studies were performed in female rats, plasma metabolites were also determined in two female rats, and no differences were found between plasma metabolism of [^11C]SMW139 in male and female rats (Table S1; Supplementary Information). […]
(§1) Ex vivo metabolite analysis
(§2) Healthy male and female Wistar rats (254-440 g) were injected with 30-40 MBq (at start of experiment) of formulated tracer in the tail vein under isoflurane anaesthesia. Rats were sacrificed at 15 and 45 min (n = 3 per time point). Blood samples were obtained and the brain was excised. Blood samples were collected in heparin tubes (BD Vacutainer NH 119 I.U., 7 mL, BD Vacutainer Systems, Plymouth, UK) and centrifuged at 4,000 rpm for 5 min at 4 °C (Hettich Universal 32, Andreas Hettich GmbH & Co.KG, Tuttlingen, Germany). Plasma supernatant was separated from blood cells and loaded onto a tC18 Sep-Pak (Waters, Milford, MA, USA), followed by washing with 3 mL of water to obtain the polar fraction. The non-polar fraction was then eluted with 2 mL of MeOH and 1 mL of water and further analysed by HPLC. The brain was put in a falcon tube containing 4 mL MeCN/H2O (50:50 v/v) and homogenised with a disperser (IKA T18 B Ultra-Turrax, IKA®-Werke GmbH & Co.KG, Staufen, Germany) before centrifugation (5 min, 4,000 rpm, 20 °C, Hettich Universal 32). Supernatant was separated from brain precipitate and analysed by HPLC. Analytical HPLC was performed with Dionex (Sunnyvale, CA, USA) UltiMate 3000 HPLC equipment with Chromeleon software (version 6.8) on a Gemini C18 5-µm (10 x 250 mm) column (Phenomenex, Torrance, CA, USA) with gradient and a mixture of MeCN (A) and 0.1% DIPA in water (B) as eluent according to the following scheme: 0 min, […]
(§3) 0.25 mL·min-1. All separate fractions were counted for radioactivity in a Wizard Gammacounter 1470 or 2480 (Wallac/PerkinElmer, Waltham, MA, USA).
Table S1: Metabolic profile of [11C]SMW139 in female rAAV-hP2X7R rats. […]

[2] = target: T1, P2X7R (Homo sapiens, UniProt Q99572); assay: In vitro autoradiography on post mortem human brain tissue (AD patients and controls); format: binding; conditions: tracer 28 nM
T1 construct: Snap frozen human post-mortem; tissue The Netherlands Brain Bank; host or cells: post mortem human temporal cortex (AD patients and non-neurological controls)
T1 sequence (Q99572 1-595): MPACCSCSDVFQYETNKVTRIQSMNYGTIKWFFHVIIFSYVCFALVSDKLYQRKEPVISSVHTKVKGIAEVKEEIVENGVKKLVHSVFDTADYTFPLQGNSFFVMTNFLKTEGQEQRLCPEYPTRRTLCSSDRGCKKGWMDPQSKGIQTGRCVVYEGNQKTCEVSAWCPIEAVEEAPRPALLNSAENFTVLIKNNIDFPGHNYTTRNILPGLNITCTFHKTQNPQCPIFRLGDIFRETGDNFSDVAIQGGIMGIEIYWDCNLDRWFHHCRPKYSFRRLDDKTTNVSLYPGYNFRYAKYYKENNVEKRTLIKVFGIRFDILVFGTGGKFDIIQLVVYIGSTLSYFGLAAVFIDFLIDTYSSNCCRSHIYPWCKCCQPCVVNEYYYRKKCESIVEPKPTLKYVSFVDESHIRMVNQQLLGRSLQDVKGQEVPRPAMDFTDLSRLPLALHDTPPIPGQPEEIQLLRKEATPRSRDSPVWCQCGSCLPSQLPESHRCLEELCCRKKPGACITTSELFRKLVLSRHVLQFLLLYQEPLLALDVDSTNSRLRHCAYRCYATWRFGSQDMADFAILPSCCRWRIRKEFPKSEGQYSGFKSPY

[3] = tested on: mouse P2X7R; parameters: method as in PMID 28841278; conditions: cited from earlier work
[4] = Ex vivo metabolite analysis (plasma and brain) in healthy male Wistar rats; parameters: species or system rat
Method: In vivo stability of analogues [^11C]1–3 and [^11C]SMW139 was assessed in healthy male Wistar rats at 15 and 45 minutes after injection of 30–40 MBq of formulated tracer. […] Results obtained in plasma correspond with previously reported stability results in rat liver microsomes. A higher level of intact tracer was found in brain (Table 3) for [^11C]1 and [^11C]SMW139 compared with [^11C]2 and [^11C]3. Despite optimisation of the extraction method, the percentage of total radioactivity that could be extracted from brain homogenates was not optimal for all four compounds (59 ± 6% for [^11C]1; 58 ± 7% for [^11C]2; 61 ± 4% for [^11C]3; 62 ± 3% for [^11C]SMW139). Therefore, based on its highest stability in plasma in vivo, [^11C]SMW139 was selected for further in vivo studies. As imaging studies were performed in female rats, plasma metabolites were also determined in two female rats, and no differences were found between plasma metabolism of [^11C]SMW139 in male and female rats (Table S1; Supplementary Information).
For each of the carbon-11 labelled benzamide analogues [^11C]1–3 and [^11C]SMW139, a biodistribution study and metabolite analysis in healthy male Wistar rats was performed, as described in detail in the Supplementary Information. Briefly, tracer distribution in blood, brain, and peripheral organs was measured at 5, 15, 30 and 45 min after intravenous injection of 13–23 MBq of formulated tracer. Metabolite analysis was performed at 15 and 45 min after intravenous injection of 30–40 MBq of formulated tracer in both blood plasma and brain. […]
as §1, §2, §3

[5] = target: T2, human P2X7 receptor (hP2X7R) (Homo sapiens, UniProt Q99572); assay: In vitro autoradiography on rat brain cryosections locally overexpressing hP2X7R; conditions: tracer 28 nM
T2 sequence (Q99572 1-595): T1 sequence (Q99572 1-595)
Method: Snap frozen brain tissue was cut on a cryostat into 20 μm sections.
Stereotactic injection of viral vector
Female Wistar rats (n=7) were anaesthetised by intraperitoneal (i.p.)
injection of ketamine (75 mg·kg-1); Ketalar, Pfizer, Brussels, Belgium) and medetomidin (1 mg·kg-1;
Domitor, Pfizer) and positioned in a stereotactic head frame (Stoelting, Wood Dale, IL, USA). Right and
left striatum were injected with 4 µL of the hP2X7R vector (rAAV_3flag-hP2X7R) and of the control
vector (rAAV_3flag-eGFP), respectively, at a rate of 0.25 µL·min-1, using a 30-gauge needle connected
to a 10 µL Hamilton syringe. Coordinates used for striatal injection of the hP2X7R vector were:
anteroposterior 0 cm, lateral -0.28 cm and dorsoventral -0.64 cm relative to bregma. Coordinates
used for striatal injection of the eGFP vector were: anteroposterior 0 cm, lateral +0.28 cm and
dorsoventral -0.64 cm relative to bregma. After injection, the needle was kept in place for another 5
minutes before removing it slowly. To reverse the anaesthesia, the rats were injected intraperitoneally
with 0.5 mg·kg-1 atipamezol (Antisedan, Orion Pharma, Newburry, Berkshire, UK).
Rats were sacrificed for in
vitro autoradiography at 3 (n=2) and 12 (n=5) weeks after vector injection.
Snap frozen brains of female Wistar rats (rAAV_3flag-hP2X7R in right striatum; rAAV_3flag-eGFP in left
striatum; sacrificed 3 weeks (n = 2) or 12 weeks (n = 5) after vector injection) were cut on a Leica
CM3050 S cryostat (Leica Biosystems, Nussloch, Germany) at -19 °C in transversal sections of 20 µm,
thaw-mounted on SuperFrostTM Plus (Thermo Fisher Scientific, Waltham, MA, USA) object glasses,
dried overnight on silica at 4 °C and then stored at -20 °C until use.
Upon use, sections were thawed to room temperature for an hour
before washing the sections in 5 mM Tris-HCl buffer (pH 7.4) at room temperature (3x 5 min). Sections
were dried in a cold stream of air before incubation (30 min) with 5 mM Tris-HCl buffer (pH 7.4)
concentration. After incubation, sections were washed (3x 1.5 min) in ice-cold 5 mM Tris-HCl buffer
(pH 7.4) followed by a dip in ice-cold demineralised water. Sections were dried in a stream of air and
then exposed to a storage phosphor screen (BAS-IP SR 2040 E, GE Healthcare Europe GmbH,
Eindhoven, the Netherlands) and the screen was read out on a Typhoon FLA 7000 phosphor imager
(GE Healthcare Europe GmbH, Eindhoven, the Netherlands).
quantified using ImageQuantTL Analysis Toolbox (version 8.1, GE Healthcare). In case of the rat brain
sections, regions of interest (ROIs) were defined around the striatum. […] Results are expressed as mean intensity, or as
percentage of tracer binding, relative to total tracer binding in the contralateral striatum. Experiments
with rAAV_3flag-hP2X7R injected rat brains were performed as a duplicate of quadruplicates.
Statistical analysis of quantitative autoradiography data (unpaired t test, two-tailed) was performed

In the case of [11CH3]Oc1ccc(Cl)c(C(=O)NCC23CC4(F)CC(F)(CC(F)(C4)C2)C3)c1 [[^11C]SMW139], the “Intact tracer (%)” value ([1]; Rat 1, 15 min) is reported as 78%, the “Intact tracer (%)” value ([1]; Rat 1, 45 min) is reported as 50% and the “Intact tracer (%)” value ([1]; Rat 2, 15 min) is reported as 63%. For the same compound, the “Intact tracer (%)” value ([1]; Rat 2, 45 min) was 32%, the “Tracer binding in white matter vs grey matter” value ([2]; AD patients and controls) was “Higher tracer binding was observed in white matter compared with grey matter; also recorded: higher in white matter than in grey matter” and the “Tracer binding in AD patients vs non-neurological controls” value ([2]; temporal cortex, grey and white matter) was “does not differ significantly; also recorded: did not differ significantly; also recorded: no significant differences”. The “Affinity lower for mouse P2X7R compared with hP2X7R” value [3] was 6 fold, the “Intact tracer (%)” value ([4]; rat brain, 15 min p.i.) was 79 ± 1% and the “Intact tracer (%)” value ([4]; rat brain, 45 min p.i.) was 66 ± 2%. For the same compound, the “Intact tracer (%)” value ([4]; rat plasma, 15 min p.i., male Wistar rats) was 60 ± 1%, the “Intact tracer (%)” value ([4]; rat plasma, 45 min p.i., male Wistar rats) was 42% and 42 ± 2% and the “Mean intensity of tracer binding in rAAV_3flag-eGFP injected striatum” value [5] was 69 ± 10 counts. For the same compound, the “Mean intensity of tracer binding in rAAV_3flag-hP2X7R injected striatum” value [5] was 678 ± 55 counts and the “Increased binding in rAAV_3flag-hP2X7R injected striatum vs rAAV_3flag-eGFP injected striatum” value ([5]; n = 2) was 10 ± 2 fold and 10 fold.
